Like-named read-outs stand apart in the source and are kept apart here.
Legend:
P2Y2 receptor = molecular target: T1, P2Y2 receptor (Homo sapiens, UniProt P41231); assay: IP1 accumulation assay (kit IP-one HTRF); type: cell-based
T1 construct: host or cells: cells not identified for the IP1 assay
Experimental: The compounds described herein may be tested for their ability to elicit P2Y2 receptor activity using in vitro IP1 accumulation, intracellular calcium mobilization, mucus production and ciliary beat frequency assays, ex vivo Short Current Circuit and fluid transport assays for P2Y2 and other P2Y receptor activity assays, as described below.
Cells in midlog phase are collected with PBS-EDTA, washed and resuspended in medium without antibiotics at a concentration of 2×10^5 cells/ml. Cells (200 μL or 40.000 cells) are then distributed into a 96 well plate (Cellstar, Greiner, 655083). The plate is incubated overnight at 37° C. in a cell culture incubator. The next morning, the medium is removed and replaced by 50 μL of agonist diluted in the stimulation buffer provided with the kit IP-one (CisBio, 621P1PEB). The plate is incubated for 1 h at 37° C. in a cell culture incubator. 25 μL of the antibody diluted in lysis buffer is then added to each well. 25 μL of the IP1-d2 diluted in lysis buffer is added to each well and the plate is incubated for 1 h. at room temperature. The plate is then read on a Rubystar and dose-response curves are generated by plotting the ligand concentrations versus the DeltaF ratio.
EC50 values for certain compounds were obtained through an IP1 accumulation assay (kit IP-one HTRF), as described above.

male Balb/C mice [1] = assay: Total gastrointestinal transit, carmine red dye meal, time to first red pellet and feces weight; type: in vivo; conditions: oral gavage 5 and 50 mg/kg
Experimental: Briefly, mice were administered a meal containing a non-absorbable red dye (carmine) and were monitored for 3 hours. Feces were collected and time of expulsion was recorded. Feces were weighed fresh and again after overnight drying. Time to first red-colored feces was used as a measure of total GI transit time. Total weight of wet and dry feces was used as a measure of fluid secretion.
Male Balb/C mice were fasted overnight with free access to water. They were then given access to food and water for 30 minutes. They were finally moved to empty plastic cages with no access to food or water. After 1 hour, each mouse was fed a liquid meal of 0.5% methylcellulose (weight-to-volume w/v) in water containing 3% carmine dye (w/v) as well as doses of the test compound at 5 and 50 mg/kg (10 mL/kg) with a gavage needle. Control animals received vehicle only. Each animal was held in an individual cage for the following 3 hours. The expulsion time of each feces was recorded to the nearest 5 seconds. Each feces was placed in a tared vial and the vial was capped. Fresh feces were weighed and the vials were kept uncapped overnight at 37° C. The feces were then weighed again. Average times to first red-colored feces for vehicle- and compound-dosed animals were compared using a Student's t-test (two-sided, unequal variance). A P-value of 0.05 or less was considered statistically significant. […]

male Balb/C mice [2] = assay: Gastric retention and small intestine transit, 30 min after Tc-sulfur colloid meal; type: in vivo; conditions: 30 min after meal, tegaserod 0.1 mg/kg ip, lubiprostone 0.1 mg/kg oral, compound C 50 mg/kg oral; for geometric center (GC) of the small intestine: 1-way ANOVA or Student's t-test, FIG. 3; for stomach retention, percentage of total radioactivity left in the stomach: FIG. 5
Experimental: Male Balb/C mice were fasted overnight with free access to water. Water was then removed for 30 minutes. Each mouse was subsequently gavaged a liquid meal of 0.5% methylcellulose (weight-to-volume w/v) and 10% corn oil (volume-to-volume v/v) in water containing 5-10 μCi of an non-absorbable Tc-sulfur colloid radioactive marker as well as compound C at doses between 2 and 50 mg/kg (10 mL/kg), or lubiprostone at 100 μg/kg. A group was dosed with tegaserod (100 μg/kg) injected ip just prior to receiving vehicle by oral gavage. Control animals received vehicle only. Animals were euthanized 30 minutes after dosing and their GI tract was excised from the stomach down. The stomach was counted alone. The small intestine was extended and cut into 10 equally sized pieces, labeled 1 to 10 from stomach to caecum. Each piece of the small intestine, and the stomach, were counted for radioactivity. The geometric center (GC) of the small intestine was calculated according to GC=(Σ(i×Ci))/(ΣCi), where i is the label of the segment (from 1 to 10) and Ci is the number of counts. GC is a number between 1 and 10. The closer GC is to 10, the faster the small intestinal transit. Gastric retention was calculated as percent of total dose counted. GC's and gastric retentions were compared between dose and vehicle groups using a Student's t-test. A P-value of less than 0.05 was considered statistically significant, as depicted in FIGS. 3-5.

male Balb/C mice [3] = assay: Large intestine transit, 2.5 hr after Tc-sulfur colloid meal; type: in vivo; conditions: 2.5 hr after meal; for gastric retention (percentage of total radioactivity left in stomach): compound C up to 50 mg/kg oral, lubiprostone 0.1 mg/kg oral, FIG. 6
Experimental: Male Balb/C mice were fasted overnight with free access to water. Water was then removed for 30 min. Each mouse was subsequently gavaged a liquid meal of 0.5% methylcellulose (weight-to-volume w/v) and 10% corn oil (volume-to-volume v/v) in water containing 5-10 μCi of an non-absorbable Tc-sulfur colloid radioactive marker containing the compound C at doses of 5, 10 and 50 mg/kg (10 mL/kg), or lubiprostone at 100 μg/kg. A group was dosed with tegaserod (100 μg/kg) injected ip just prior to receiving vehicle by oral gavage. Control animals received vehicle only. Animals were kept for 30 minutes in empty cages then given access to food and water at libitum. They were euthanized 2.5 hours after dosing and their GI tract was excised from the stomach down. The stomach and small intestine were counted alone. The large intestine was extended and cut into 3 equally sized pieces, labeled 1 to 3 from caecum to rectum. Each section was counted individually. Feces, labeled 4, were collected, weighed, and counted. The geometric center (GC) of the large intestine/feces portion of the GI tract was calculated according to GC=(Σ(i×Ci))/(ΣCi), where i is the label of the segment (from 1 to 4) and Ci is the number of counts. GC is a number between 1 and 4. The closer GC is to 4, the faster the intestinal transit. Between 7 and 12 mice were used for each dose group. Gastric retention was calculated as percent of total dose counted. Gastric retentions between compound-dosed and vehicle-dosed animals were compared using a one-way ANOVA test and a Dunnett post-test. GC's and feces weights were compared between compound- and vehicle-dosed animals using a similar statistical methodology. In all cases, a P-value of less than 0.05 was considered statistically significant.

[4] = compound falls in class +++, read-out: EC50, class +++ (<500 nM)
[5] = X = compound falls in class +, read-out: EC50, class + (>1000 nM)

T1 sequence (P41231 whole entry): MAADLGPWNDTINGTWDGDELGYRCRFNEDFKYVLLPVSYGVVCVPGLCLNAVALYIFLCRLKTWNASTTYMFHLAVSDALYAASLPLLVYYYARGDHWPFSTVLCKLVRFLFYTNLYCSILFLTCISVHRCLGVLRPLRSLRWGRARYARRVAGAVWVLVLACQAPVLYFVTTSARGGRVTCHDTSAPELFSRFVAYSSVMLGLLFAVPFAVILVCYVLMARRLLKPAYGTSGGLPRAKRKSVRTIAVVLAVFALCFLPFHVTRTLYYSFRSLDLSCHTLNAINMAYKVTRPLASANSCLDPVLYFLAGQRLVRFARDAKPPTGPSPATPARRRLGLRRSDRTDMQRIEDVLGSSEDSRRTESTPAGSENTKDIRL

SMILES	EC50 (P2Y2 receptor; [4]) [nM]	geometric center (GC) of the small intestine (male Balb/C mice [2])	stomach retention, percentage of total radioactivity left in the stomach (male Balb/C mice [2])	EC50 (P2Y2 receptor; [5]) [nM]	other results
COc1ccc(O[C@@H]2O[C@H](COP(=O)(O)OP(=O)(O)OP(=O)(O)OP(=O)(O)OC[C@H]3O[C@@H](n4cnc5c(=N)n(C)cnc54)[C@H](O)[C@@H]3O)[C@@H](O)[C@H]2O)cc1 [Compound C]	< 500	No statistical significance was observed	No statistical significance was found	–	total weight of feces (wet, dry) and water content produced during 3 hours (male Balb/C mice [1]; 3 hrs after dosing, FIG. 2): dose-dependent increase in wet, and dry feces, as well as in water content; time to first red-colored feces (total GI transit time) (male Balb/C mice [1]; vs vehicle, FIG. 1): time to first red pellet decreases with increasing dose; gastric retention (percentage of total radioactivity left in stomach) (male Balb/C mice [3]): virtually no effect on gastric retention; geometric center (GC) of the large intestine and feces (male Balb/C mice [3]; oral 5, 10 and 50 mg/kg, FIG. 7): calculated large intestine geometric center increases with increasing dose; percentage of total radioactivity found in the feces (male Balb/C mice [3]; oral 5, 10 and 50 mg/kg, FIG. 8): dose-dependent increase of % total radioactivity starting at 5 mg/kg dose at a percentage equivalent to that obtained with lubiprostone and tegaserod; dose with statistically significant effect on large intestine transit (male Balb/C mice [3]; oral, P<0.05 vs vehicle): ≥ 10 mg/kg; geometric center (GC) of the large intestine, effect compared with reference drugs (male Balb/C mice [3]; compound C 5 mg/kg oral): equivalent to that obtained with doses of lubiprostone (0.1 mg/kg) and tegaserod (0.1 mg/kg)
CNc1c2ncn([C@@H]3O[C@H](COP(=O)(O)OP(=O)(O)OP(=O)(O)OP(=O)(O)OC[C@H]4O[C@@H](Oc5ccc(OC)cc5)[C@H](O)[C@@H]4O)[C@@H](O)[C@H]3O)c2nc[n+]1C [Compound D]	< 500	–	–	–	–
COc1ccc(O[C@@H]2O[C@H](COP(=O)(O)OP(=O)(O)OP(=O)(O)OC[C@H]3O[C@@H](n4cnc5c(=N)n(C)cnc54)[C@H](O)[C@@H]3O)[C@@H](O)[C@H]2O)cc1 [Compound E]	–	–	–	> 1000	–
COc1ccc(N(C)C[C@@H]2O[C@H](COP(=O)(O)OP(=O)(O)OP(=O)(O)O)[C@@H](O)[C@H]2O)cc1 [Compound J, ((2R,3S,4R)-3,4-dihydroxy-5-(((4-methoxyphenyl)(methyl)amino)methyl)tetrahydrofuran-2-yl)methyltriphosphoric acid]	–	–	–	> 1000	–
O=P(O)(O)OP(=O)(O)OP(=O)(O)OC[C@H]1O[C@@H](CNc2cccnc2)[C@H](O)[C@@H]1O [Compound K, ((2R,3S,4R,5S)-3,4-Dihydroxy-5-((pyridin-3-ylamino)methyl)tetrahydrofuran-2-yl)methyltriphosphoric acid]	–	–	–	> 1000	–
O=P(O)(O)OP(=O)(O)OP(=O)(O)OC[C@H]1O[C@@H](Oc2cccnc2)[C@H](O)[C@@H]1O [Compound M, 3-Pyridyl-β-D-ribofuranosid-5′-triphosphate]	–	–	–	> 1000	–
COc1ccc(O[C@@H]2O[C@H](COP(=O)(O)OP(=O)(O)OP(=O)(O)OP(=O)(O)OC[C@H]3O[C@@H](c4c[nH]c(=O)[nH]c4=O)[C@H](O)[C@@H]3O)[C@@H](O)[C@H]2O)cc1 [Compound N]	–	–	–	–	EC50 (P2Y2 receptor; X in this column = compound falls in class ++, read-out: EC50, class ++ (500-1000 nM)): 500 to 1000 nM
Cn1cnc2c(ncn2[C@@H]2O[C@H](COP(=O)(O)OP(=O)(O)OP(=O)(O)O)[C@@H](O)[C@H]2O)c1=N [Compound P, 1-Methyl-Adenosine-5′-triphosphate]	< 500	–	–	–	–
CCCCC(F)(F)[C@@]1(O)CC[C@H]2[C@@H](CC(=O)[C@@H]2CCCCCCC(=O)O)O1 [lubiprostone]	–	No statistical significance was observed	No statistical significance was found	–	gastric retention (percentage of total radioactivity left in stomach) (male Balb/C mice [3]): significant delay in gastric emptying
[H]/N=C(/NCCCCC)N/N=C/c1c[nH]c2ccc(OC)cc12 [tegaserod]	–	No statistical significance was observed	statistically significance for tegaserod versus vehicle using Student's t-test	–	–

From patent US8569259B2, “Adenosine analogs and their use” (Microdose Therapeutx, Inc., priority 2006, dated 2013)
